Experimental findings from the RepoRT retention time repository (doi:10.1016/j.jhazmat.2019.121712) are described below.

Structures are written as SMILES.

A short description of the data set: Thermo Scientific Acclaim RSLC 120 C18, 100 × 2.1 mm, 2.2 µm, 30 °C; A: 90% water + 10% methanol + 0.01% formic acid + 5 mM ammonium formate; B: methanol + 0.01% formic acid + 5 mM ammonium formate; gradient (min/%B) 0.1/1 3/39 14/99.9 16/99.9. Particulars: stereoisomer not certain.
Regarding `COC(=O)C(C)N(C(=O)Cc1ccccc1)c1c(C)cccc1C` (stereo not given), the LC retention time amounted to 10.9 min. In the case of `CCN1CCCC1CNC(=O)c1cc(S(N)(=O)=O)ccc1O` (stereo not given), the LC retention time was 3.18 min. For the compound `CN(C)CC(c1ccc(O)cc1)C1(O)CCCCC1` (stereo not given), the LC retention time was 4.76 min.

Regarding `Nc1ccc(S(=O)(=O)Nc2cnc3ccccc3n2)cc1`, the LC retention time was 5.81 min. Regarding `COc1ccc2cc(CCC(C)=O)ccc2c1`, the LC retention time is 9.82 min. Turning to `C=CCCCn1cc(C(=O)c2cccc3ccccc23)c2ccccc21`, the LC retention time was determined as 12 min.

Regarding `CCCCn1cc(C(=O)c2cccc3ccccc23)c2ccc(O)cc21`, the LC retention time amounted to 10.6 min.

As to `CCSCc1ccccc1OC(=O)NC`, the LC retention time amounted to 7.7 min. Regarding `CCCCCCCCc1ccc(OCCO)cc1`, the LC retention time was 12.4 min. Regarding `N=C(N)c1ccccc1`, the LC retention time amounted to 2.63 min. On to `O=C1OC(=O)c2ccccc21`, for which the LC retention time amounted to 9.58 min.

As to `O=C(O)CCCn1cc(C(=O)c2cccc3ccccc23)c2ccccc21`, the LC retention time came to 9.33 min. Take `COc1ccc(C2Sc3ccccc3N(CCN(C)C)C(=O)C2O)cc1` (stereo not given): the LC retention time was determined as 6.41 min.

Turning to `COP(=S)(OC)Oc1ccc([N+](=O)[O-])cc1`, the LC retention time stood at 9.24 min. For the compound `CN(C)C(=O)Nc1ccccc1`, the LC retention time was 5.12 min.

As to `CCCCCn1nc(C(=O)Oc2cccc3cccnc23)c2ccccc21`, the LC retention time worked out at 11.4 min. With `CCCc1cc(OC)c(CCN)cc1OC`, the LC retention time was determined as 7.46 min. Take `CCCc1nc(C)c2c(=O)[nH]c(-c3cc(S(=O)(=O)N4CCN(CCO)CC4)ccc3OCC)nn12`: the LC retention time worked out at 8.05 min. Then `COc1ccc(OC)c(CC(C)N)c1` (stereo not given), with 4.78 min; and `CCCCn1c(O)c(C(=O)c2cccc3ccccc23)c2ccccc21`, with 13.5 min; and `CCC(c1ccccc1)c1c(O)c2ccccc2oc1=O` (stereo not given), with 9.05 min. In the case of `CNCCCC1c2ccccc2C=Cc2ccccc21`, the LC retention time worked out at 7.99 min. Consider `CON=C1CC2(CC3CC(CC=C(C)CC(C)C=CC=C4COC5C(O)C(C)=CC(C(=O)O3)C45O)O2)OC(C(C)=CC(C)C)C1C` (stereo not given), for which the LC retention time worked out at 13.8 min. As for `CC(C)NCC(O)COc1ccc(CCOCC2CC2)cc1` (stereo not given), the LC retention time stood at 6.68 min. Turning to `OC(c1ccccc1)(c1ccccc1)C1CCCCN1` (stereo not given), the LC retention time was found to be 5.78 min.

For `CCC(c1cccc(O)c1)C(C)CN(C)C` (stereo not given), the LC retention time amounted to 5.01 min. Regarding `Cc1c(C(=O)c2cccc3ccccc23)c2cccc3c2n1C(CN1CCOCC1)CO3` (stereo not given), the LC retention time worked out at 10.9 min. Take `CN(C)CCC=C1c2ccccc2COc2ccc(CC(=O)O)cc21`: the LC retention time came to 6.89 min.

Consider `COC(=O)C1=C(C)NC(C)=C(C(=O)OC)C1c1ccccc1[N+](=O)[O-]`, for which the LC retention time stood at 8.31 min. Then `CCC=CCC1=C(C)C(OC(=O)C2C(C=C(C)C)C2(C)C)CC1=O` (stereo not given), with 13.3 min.

On to `CCCCCCC(C)(C)c1ccc(C2CC(O)CCC2CCCO)c(O)c1` (stereo not given), for which the LC retention time was 12 min. For `COc1ccc(CCN)cc1OC`, the LC retention time was determined as 3.53 min.

Turning to `NC(=O)C(CCN1CCCCC1)(c1ccccc1)c1ccccc1`, the LC retention time was determined as 5.19 min. As for `CN1CCC(N(Cc2ccccc2)c2ccccc2)CC1`, the LC retention time stood at 7.77 min. With `CNS(=O)(=O)Cc1ccc2[nH]cc(CCN(C)C)c2c1` the figure was 3.43 min. Then `O=C1CN=C(c2ccccc2)c2c(sc3c2CCCC3)N1`, with 9.49 min; and `O=C(O)Cc1cccc2ccccc12`, with 7.76 min; and `CN1C2CCC1C(C(=O)O)C(OC(=O)c1ccccc1)C2` (stereo not given), with 4.68 min. For `CC(C)NCC(O)COc1cccc2ccccc12` (stereo not given), the LC retention time amounted to 6.59 min. In the case of `CCCCCn1cc(C(=O)c2ccc(CC)c3ccccc23)c2ccccc21`, the LC retention time amounted to 13.2 min. For the compound `CNC(=O)ON=C(C)SC`, the LC retention time amounted to 4.16 min.

Consider `C=CC1(C)CC(OC(=O)CSCCN(CC)CC)C2(C)C(C)CCC3(CCC(=O)C32)C(C)C1O` (stereo not given), for which the LC retention time was found to be 7.71 min. Turning to `CN1CCC23c4c5ccc(O)c4OC2CCCC3C1C5` (stereo not given), the LC retention time came out at 3.84 min. In the case of `CC(C)(C)c1ccc(C(=O)CCCN2CCC(OC(c3ccccc3)c3ccccc3)CC2)cc1`, the LC retention time was 10.9 min. For `Cc1ccsc1C=CC1=NCCCN1C`, the LC retention time is 4.36 min.

As to `CN(C)CCOc1ccccc1Cc1ccccc1`, the LC retention time worked out at 7.29 min.

Take `CC1C(c2ccccc2)OCCN1C` (stereo not given): the LC retention time was determined as 4.06 min. Then `COC(=O)NS(=O)(=O)c1ccc(N)cc1`, with 3.41 min. In the case of `CC#CC1(O)CCC2C3CCC4=CC(=O)CCC4=C3C(c3ccc(N(C)C)cc3)CC21C` (stereo not given), the LC retention time stood at 11.1 min. Take `CC(=O)c1ccc2c(c1)N(CCCN(C)C)c1ccccc1S2`: the LC retention time came out at 7.47 min.

Regarding `CCS(=O)(=O)CCn1c([N+](=O)[O-])cnc1C`, the LC retention time is 3.86 min. Consider `CC1=C(C(=O)Nc2ccccc2)SCCO1`, for which the LC retention time is 7.46 min. As for `CC(N)Cc1c[nH]c2ccccc12` (stereo not given), the LC retention time was determined as 4.44 min. For the compound `CCCc1nn(C)c2c(=O)[nH]c(-c3cc(S(=O)(=O)N4CCN(Cc5ccccc5)CC4)ccc3OCC)nc12`, the LC retention time stood at 11.5 min. In the case of `c1cncc(C2CCCCN2)c1` (stereo not given), the LC retention time amounted to 2.94 min.

`CCC(CO)NCCNC(CC)CO` (stereo not given): the LC retention time was 1.93 min. On to `CCC1(C2OC(C3OC(O)(CO)C(C)CC3C)CC2C)CCC(C2(C)CCC3(CC(O)C(C)C(C(C)C(OC)C(C)C(=O)O)O3)O2)O1` (stereo not given), for which the LC retention time worked out at 13.8 min. Consider `CCCCCn1cc(C(=O)c2ccc(OC)cc2)c2ccccc21`, for which the LC retention time was determined as 11.8 min. In the case of `C(=Cc1ccccc1)CN1CCN(C(c2ccccc2)c2ccccc2)CC1`, the LC retention time came out at 9.86 min. As to `OC(c1ccccc1)(c1ccccc1)C1CCNCC1`, the LC retention time was determined as 6.19 min. For `CCSC(=O)N(CC)C1CCCCC1`, the LC retention time is 11.7 min. As for `CN(C)c1ccc(C(c2ccccc2)c2ccc(N(C)C)cc2)cc1`, the LC retention time turned out to be 13.7 min. `CSc1nc(NC2CC2)nc(NC(C)(C)C)n1`: the LC retention time turned out to be 10.5 min. Regarding `CC(CN(C)C)CN1c2ccccc2Sc2ccc(C#N)cc21` (stereo not given), the LC retention time came to 7.52 min.

Consider `COc1ccc(C2Sc3ccccc3N(CCN(C)C)C(=O)C2OC(C)=O)cc1` (stereo not given), for which the LC retention time stood at 7.18 min. Take `COC(C)C(O)(C(=O)OCC1=CCN2CCC(O)C12)C(C)C` (stereo not given): the LC retention time came out at 4.27 min.

For `CCOC(=O)C1(c2ccccc2)CCC=CC1N(C)C` (stereo not given), the LC retention time came out at 5.1 min. Then `O=C1CC2OCC=C3CN4CCC56c7ccccc7N1C5C2C3CC46` (stereo not given), with 4.16 min; and `COc1cc(OC)nc(NC(=O)NS(=O)(=O)c2c(-c3nnn(C)n3)cnn2C)n1`, with 7.62 min; and `CCCCc1oc2ccc(NS(C)(=O)=O)cc2c1C(=O)c1ccc(OCCCN(CCCC)CCCC)cc1`, with 10.1 min.
